Reference: patent US9670227B2, “Thienopyrimidine derivatives, a process for their preparation and pharmaceutical compositions containing them” (LES LABORATOIRES SERVIER, priority 2013, dated 2017)

The molecules below were run against Mcl-1 protein (UniProtKB primary accession number: Q07820) (Homo sapiens, UniProt Q07820) (assay: Inhibition of Mcl-1 by fluorescence polarisation, Method 1). Conditions: fluorescence polarisation test; Method 2 values are underlined in the patent (underlining not visible here); read-out: IC50 (M) Mcl-1 FP.
Type: binding
Method: The relative binding potency of each compound was determined via Fluorescence Polarisation (FP).
An 11 point serial dilution of each compound was prepared in DMSO and 2 μl transferred into flat bottomed, low binding, 384-well plate (final DMSO concentration 5%). 38 μl of buffer (10 mM 4-(2-hydroxyethyl)-1-piperazineethanesulfonic acid [HEPES], 150 mM NaCl, 0.05% Tween 20, pH 7.4), containing the Fluorescein labelled ligand (final concentration 1 nM) and Mcl-1 protein (final concentration 5 nM) was then added.

Chain of Mcl-1 protein (Q07820 whole entry): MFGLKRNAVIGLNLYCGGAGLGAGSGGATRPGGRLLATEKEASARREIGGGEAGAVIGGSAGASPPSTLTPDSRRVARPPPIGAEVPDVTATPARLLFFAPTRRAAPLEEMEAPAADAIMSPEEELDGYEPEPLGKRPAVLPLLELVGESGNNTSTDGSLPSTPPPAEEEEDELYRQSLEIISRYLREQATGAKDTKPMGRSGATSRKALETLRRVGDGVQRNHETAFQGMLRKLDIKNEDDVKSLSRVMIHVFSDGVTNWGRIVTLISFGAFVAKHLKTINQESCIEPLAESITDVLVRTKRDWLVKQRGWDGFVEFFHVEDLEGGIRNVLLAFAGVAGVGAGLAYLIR

IC50 [M]	Compound
8e-08	COc1ccccc1CC(Oc1ncnc2sc(-c3ccc(F)cc3)c(-c3ccc(OCCN4CCN(C)CC4)c(Cl)c3C)c12)C(=O)O [Example 1, (2R)-2-{[(5Sa)-5-{3-chloro-2-methyl-4-[2-(4-methylpiperazin-1-yl)ethoxy]phenyl}-6-(4-fluorophenyl)thieno[2,3-d]pyrimidin-4-yl]oxy}-3-(2-methoxyphenyl)propanoic acid]
1.2e-08	Cc1c(-c2c(-c3ccc(F)cc3)sc3ncnc(OC(Cc4ccccc4OCC4CCCO4)C(=O)O)c23)ccc(OCCN2CCN(C)CC2)c1Cl [Example 2, (2R)-2-{[(5Sa)-5-{3-chloro-2-methyl-4-[2-(4-methylpiperazin-1-yl)ethoxy]phenyl}-6-(4-fluorophenyl)thieno[2,3-d]pyrimidin-4-yl]oxy}-3-{2-[(2R)-tetrahydrofuran-2-ylmethoxy]phenyl}propanoic acid]
8.9e-09	Cc1c(-c2c(-c3ccc(F)cc3)sc3ncnc(OC(Cc4ccccc4OCC(F)(F)F)C(=O)O)c23)ccc(OCCN2CCN(C)CC2)c1Cl [Example 3, (2R)-2-{[(5Sa)-5-{3-chloro-2-methyl-4-[2-(4-methylpiperazin-1-yl)ethoxy]phenyl}-6-(4-fluorophenyl)thieno[2,3-d]pyrimidin-4-yl]oxy}-3-[2-(2,2,2-trifluoroethoxy)phenyl]propanoic acid]
1.3e-08	Cc1c(-c2c(-c3ccc(F)cc3)sc3ncnc(OC(Cc4ccccc4OCc4ccccn4)C(=O)O)c23)ccc(OCCN2CCN(C)CC2)c1Cl [Example 14, (2R)-2-{[(5Sa)-5-{3-chloro-2-methyl-4-[2-(4-methylpiperazin-1-yl)ethoxy]phenyl}-6-(4-fluorophenyl)thieno[2,3-d]pyrimidin-4-yl]oxy}-3-[2-(pyridin-2-ylmethoxy)phenyl]propanoic acid]
5.6e-09	Cc1c(-c2c(-c3ccc(F)cc3)sc3ncnc(OC(Cc4ccccc4OCc4ccnc(-c5ccccn5)n4)C(=O)O)c23)ccc(OCCN2CCN(C)CC2)c1Cl [Example 31, (2R)-2-{[(5Sa)-5-{3-chloro-2-methyl-4-[2-(4-methylpiperazin-1-yl)ethoxy]phenyl}-6-(4-fluorophenyl)thieno[2,3-d]pyrimidin-4-yl]oxy}-3-(2-{[2-(pyridin-2-yl)pyrimidin-4-yl]methoxy}phenyl)propanoic acid]
4.8e-09	Cc1c(-c2c(-c3ccc(F)cc3)sc3ncnc(OC(Cc4ccccc4OCc4ccnc(-c5cccnc5)n4)C(=O)O)c23)ccc(OCCN2CCN(C)CC2)c1Cl [Example 32, (2R)-2-{[(5Sa)-5-{3-chloro-2-methyl-4-[2-(4-methylpiperazin-1-yl)ethoxy]phenyl}-6-(4-fluorophenyl)thieno[2,3-d]pyrimidin-4-yl]oxy}-3-(2-{[2-(pyridin-3-yl)pyrimidin-4-yl]methoxy}phenyl)propanoic acid]
3.3e-09	Cc1c(-c2c(-c3ccc(F)cc3)sc3ncnc(OC(Cc4ccccc4OCc4ccnc(-c5ccncc5)n4)C(=O)O)c23)ccc(OCCN2CCN(C)CC2)c1Cl [Example 34, (2R)-2-{[(5Sa)-5-{3-chloro-2-methyl-4-[2-(4-methylpiperazin-1-yl)ethoxy]phenyl}-6-(4-fluorophenyl)thieno[2,3-d]pyrimidin-4-yl]oxy}-3-(2-{[2-(pyridin-4-yl)pyrimidin-4-yl]methoxy}phenyl)propanoic acid]
4.8e-09	COCCc1nccc(COc2ccccc2CC(Oc2ncnc3sc(-c4ccc(F)cc4)c(-c4ccc(OCCN5CCN(C)CC5)c(Cl)c4C)c23)C(=O)O)n1 [Example 44, (2R)-2-{[(5Sa)-5-{3-chloro-2-methyl-4-[2-(4-methylpiperazin-1-yl)ethoxy]phenyl}-6-(4-fluorophenyl)thieno[2,3-d]pyrimidin-4-yl]oxy}-3-(2-{[2-(2-methoxyethyl)pyrimidin-4-yl]methoxy}phenyl)propanoic acid]
5.6e-09	Cc1c(-c2c(-c3ccc(F)cc3)sc3ncnc(OC(Cc4ccccc4OCc4ccnc(N5CCOCC5)n4)C(=O)O)c23)ccc(OCCN2CCN(C)CC2)c1Cl [Example 52, (2R)-2-{[(5Sa)-5-{3-chloro-2-methyl-4-[2-(4-methylpiperazin-1-yl)ethoxy]phenyl}-6-(4-fluorophenyl)thieno[2,3-d]pyrimidin-4-yl]oxy}-3-(2-{[2-(morpholin-4-yl)pyrimidin-4-yl]methoxy}phenyl)propanoic acid]
5.7e-09	COc1nccc(COc2ccccc2CC(Oc2ncnc3sc(-c4ccc(F)cc4)c(-c4ccc(OCCN5CCN(C)CC5)c(Cl)c4C)c23)C(=O)O)n1 [Example 54, (2R)-2-{[(5Sa)-5-{3-chloro-2-methyl-4-[2-(4-methylpiperazin-1-yl)ethoxy]phenyl}-6-(4-fluorophenyl)thieno[2,3-d]pyrimidin-4-yl]oxy}-3-{2-[(2-methoxypyrimidin-4-yl)methoxy]phenyl}propanoic acid]
9.7e-08	Cc1c(-c2c(-c3ccc(F)cc3)sc3ncnc(O[C@H](Cc4ccccc4OCc4ccnn4C)C(=O)O)c23)ccc(OCCN2CCN(C)CC2)c1Cl [Example 69, (2R)-2-{[(5Sa)-5-{3-chloro-2-methyl-4-[2-(4-methylpiperazin-1-yl)ethoxy]phenyl}-6-(4-fluorophenyl)thieno[2,3-d]pyrimidin-4-yl]oxy}-3-{2-[(1-methyl-1H-pyrazol-5-yl)methoxy]phenyl}propanoic acid]
1.6e-09	Cc1c(-c2c(-c3ccc(F)cc3)sc3ncnc(OC(Cc4ccccc4OCc4ccnn4C(C)(C)C)C(=O)O)c23)ccc(OCCN2CCN(C)CC2)c1Cl [Example 70, (2R)-3-{2-[(1-tert-butyl-1H-pyrazol-5-yl)methoxy]phenyl}-2-{[(5Sa)-5-{3-chloro-2-methyl-4-[2-(4-methylpiperazin-1-yl)ethoxy]phenyl}-6-(4-fluorophenyl)thieno[2,3-d]pyrimidin-4-yl]oxy}propanoic acid]
9.4e-09	Cc1c(-c2c(-c3ccc(F)cc3)sc3ncnc(OC(Cc4ccccc4OCc4ccnn4C(C)C)C(=O)O)c23)ccc(OCCN2CCN(C)CC2)c1Cl [Example 71, (2R)-2-{[(5Sa)-5-{3-chloro-2-methyl-4-[2-(4-methylpiperazin-1-yl)ethoxy]phenyl}-6-(4-fluorophenyl)thieno[2,3-d]pyrimidin-4-yl]oxy}-3-(2-{[1-(propan-2-yl)-1H-pyrazol-5-yl]methoxy}phenyl)propanoic acid]
1.6e-08	CCn1nccc1COc1ccccc1CC(Oc1ncnc2sc(-c3ccc(F)cc3)c(-c3ccc(OCCN4CCN(C)CC4)c(Cl)c3C)c12)C(=O)O [Example 76, (2R)-2-{[(5Sa)-5-{3-chloro-2-methyl-4-[2-(4-methylpiperazin-1-yl)ethoxy]phenyl}-6-(4-fluorophenyl)thieno[2,3-d]pyrimidin-4-yl]oxy}-3-{2-[(1-ethyl-1H-pyrazol-5-yl)methoxy]phenyl}propanoic acid]

Same assay, conditions: fluorescence polarisation; Method 1, or Method 2; read-out: IC50 (M) Mcl-1 FP

IC50 [M]	Compound
2.2e-08	Cc1c(-c2c(-c3ccc(F)cc3)sc3ncnc(OC(Cc4ccccc4OCC(F)(F)F)C(=O)O)c23)ccc(OCC2CCCN2C)c1Cl (single isomer, unassigned) [Example 659, (2R)-2-{[(5Sa)-5-{3-chloro-2-methyl-4-[((2R or S)-1-methylpyrrolidin-2-yl)methoxy]phenyl}-6-(4-fluorophenyl)thieno[2,3-d]pyrimidin-4-yl]oxy}-3-[2-(2,2,2-trifluoroethoxy)phenyl]propanoic acid]
3.9e-06	COc1ccccc1C[C@@H](Oc1ncnc2sc(-c3ccc(F)cc3)c(-c3cc(F)c(OCCN4CCN(C)CC4)c(Cl)c3C)c12)C(=O)O (single isomer, unassigned) [Example 665]
8.9e-07	CCc1sc2ncnc(O[C@@H](Cc3ccccc3OC)C(=O)O)c2c1-c1ccc(O)c(Cl)c1C (single isomer, unassigned) [Example 679]
2.8e-05	CCc1sc2ncnc(O[C@@H](Cc3ccccc3OC)C(=O)O)c2c1-c1ccc(O)c(Cl)c1C (single isomer, unassigned) [Example 680]
6.7e-09	CCc1sc2ncnc(OC(Cc3ccccc3OC)C(=O)O)c2c1-c1ccc(O)c(Cl)c1C (single isomer, unassigned) [Example 681]
5.1e-07	CCc1sc2ncnc(O[C@H](Cc3ccccc3OC)C(=O)O)c2c1-c1ccc(O)c(Cl)c1C (single isomer, unassigned) [Example 682]
1.5e-06	COc1ccccc1C[C@@H](Oc1ncnc2sc(-c3cccc(F)c3F)c(-c3ccc(C#CCN4CCN(C)CC4)c(Cl)c3C)c12)C(=O)O (single isomer, unassigned) [Example 716]
2.7e-06	C=C(C)c1sc2ncnc(O[C@H](Cc3ccccc3)C(=O)O)c2c1-c1cccc(Cl)c1C (single isomer, unassigned) [Example 719]
4.4e-08	C=C(C)c1sc2ncnc(O[C@H](Cc3ccccc3)C(=O)O)c2c1-c1cccc(Cl)c1C (single isomer, unassigned) [Example 720]
3.53e-07	COc1ccccc1-c1nccc(COc2ccccc2CC(Oc2ncnc3sc(-c4ccc(Oc5ccccc5)cc4)c(-c4ccc(OCCN5CCN(C)CC5)c(Cl)c4C)c23)C(=O)O)n1 (single isomer, unassigned) [Example 758]
9.05e-08	COc1ccccc1-c1nccc(COc2ccccc2CC(Oc2ncnc3sc(-c4ccc(OCCN5CCOCC5)cc4)c(-c4ccc(OCCN5CCN(C)CC5)c(Cl)c4C)c23)C(=O)O)n1 (single isomer, unassigned) [Example 763]
6.58e-07	COc1ccccc1-c1nccc(COc2ccccc2CC(Oc2ncnc3sc(-c4ccc(OCCc5ccccc5)cc4)c(-c4ccc(OCCN5CCN(C)CC5)c(Cl)c4C)c23)C(=O)O)n1 (single isomer, unassigned) [Example 765]
